Test results published in US9884818B2, “Sulphamoylpyrrolamide derivatives and the use thereof as medicaments for the treatment of hepatitis B” (Janssen Sciences Ireland UC, priority 2013, dated 2018).

Legend:
[1] = tested on: HBV; assay: Anti-HBV activity, HepG2.2.15 stable transfected cell line, HBV DNA from secreted virions by realtime PCR; format: cell-based; conditions: Hepatitis B virus, HepG2.2.15, 144 h
[2] = tested on: HBV; assay: Anti-HBV activity, HepG2.117 inducibly HBV producing cell line (Tet-off), intracellular HBV DNA by realtime PCR; format: cell-based; conditions: Hepatitis B virus, HepG2.117, 72 h
[3] = Cytotoxicity in HepG2 cells, Resazurin viability assay; conditions: human
[4] = HepG2.2.15 cells, 6 days of treatment, HBV DNA from secreted virions, read-out: HepG2 2.15 EC50
[5] = HepG2.117 cells, 3 days of treatment, intracellular HBV DNA, read-out: HepG2 117 EC50
[6] = HepG2 cells, HepG2 4 days CC50 (μM), incubated for 4 days, Resazurin assay

SMILES: Cc1c(F)ccc(NC(=O)c2cc(S(=O)(=O)N[C@H](C)C(F)(F)F)cn2C)c1F [Compound 116, N-(2,4-Difluoro-3-methylphenyl)-1-methyl-4-{[(1R)-2,2,2-trifluoro-1-methylethyl]sulfamoyl}-1H-pyrrole-2-carboxamide]
- EC50 [1, 4]: 0.03 µM
- EC50 [2, 5]: 0.02 µM
- CC50 at 4 days [3, 6]: > 25 µM

SMILES: CC(C)NS(=O)(=O)c1cn(C)c(C(=O)Nc2ccc(F)c(C#N)c2)c1F [Compound 171, N-(3-Cyano-4-fluorophenyl)-3-fluoro-1-methyl-4-[(1-methylethyl)sulfamoyl]-1H-pyrrole-2-carboxamide]
- EC50 [1, 4]: 0.02 µM
- EC50 [2, 5]: 0.02 µM
- CC50 at 4 days [3, 6]: > 25 µM

SMILES: CCC(C)(C)NS(=O)(=O)c1cc(C(=O)Nc2cc(F)c(F)c(Cl)c2)n(C)c1 [Compound 66, N-(3-chloro-4,5-difluoro-phenyl)-4-(1,1-dimethylpropylsulfamoyl)-1-methyl-pyrrole-2-carboxamide]
- EC50 [1, 4]: 0.03 µM
- EC50 [2, 5]: 0.03 µM
- CC50 at 4 days [3, 6]: > 25 µM

SMILES: Cn1cc(S(=O)(=O)NC2(C)COC2)c(F)c1C(=O)Nc1ccc(F)c(Cl)c1F [Compound 215, N-(3-Chloro-2,4-difluorophenyl)-3-fluoro-1-methyl-4-[(3-methyloxetan-3-yl)sulfamoyl]-1H-pyrrole-2-carboxamide]
- EC50 [1, 4]: 0.02 µM
- EC50 [2, 5]: 0.01 µM
- CC50 at 4 days [3, 6]: > 25 µM

SMILES: COC(=O)C(C)(C)NS(=O)(=O)c1cc(C(=O)Nc2ccc(F)c(C)c2)n(C)c1 [Compound 49, methyl 2-[[5-[(4-fluoro-3-methyl-phenyl)carbamoyl]-1-methyl-pyrrol-3-yl]sulfonylamino]-2-methyl-propanoate]
- EC50 [1, 4]: 0.07 µM
- EC50 [2, 5]: 0.02 µM
- CC50 at 4 days [3, 6]: > 25 µM

SMILES: C[C@@H](NS(=O)(=O)c1cn(C)c(C(=O)Nc2cccc(Br)c2)c1Cl)C(F)(F)F [Compound 250, N-(3-Bromophenyl)-3-chloro-1-methyl-4-{[(1R)-2,2,2-trifluoro-1-methylethyl]sulfamoyl}-1H-pyrrole-2-carboxamide]
- EC50 [1, 4]: 0.007 µM
- EC50 [2, 5]: 0.4 µM
- CC50 at 4 days [3, 6]: 20 µM

SMILES: Cn1cc(S(=O)(=O)NC(C)(C)C)c(F)c1C(=O)Nc1ccc(F)c(F)c1 [Compound 211, 4-(tert-Butylsulfamoyl)-N-(3,4-difluorophenyl)-3-fluoro-1-methyl-1H-pyrrole-2-carboxamide]
- EC50 [1, 4]: 0.04 µM
- EC50 [2, 5]: 0.04 µM
- CC50 at 4 days [3, 6]: > 25 µM

SMILES: Cn1cc(S(=O)(=O)NC(C)(C)C)cc1C(=O)Nc1ccc(F)c(C(C)(F)F)c1 [Compound 162, 4-(tert-Butylsulfamoyl)-N-[3-(1,1-difluoroethyl)-4-fluorophenyl]-1-methyl-1H-pyrrole-2-carboxamide]
- EC50 [1, 4]: > 1 µM
- EC50 [2, 5]: 0.89 µM
- CC50 at 4 days [3, 6]: > 25 µM

SMILES: Cc1cc(NC(=O)c2c(F)c(S(=O)(=O)NC3(C)COC3)cn2C)ccc1F [Compound 94, 3-Fluoro-N-(4-fluoro-3-methylphenyl)-1-methyl-4-[(3-methyloxetan-3-yl)sulfamoyl]-1H-pyrrole-2-carboxamide]
- EC50 [1, 4]: 0.009 µM
- EC50 [2, 5]: 0.01 µM
- CC50 at 4 days [3, 6]: > 25 µM

SMILES: Cn1cc(S(=O)(=O)NC2(C)COC2)cc1C(=O)Nc1ccc(C#N)c(C(F)(F)F)c1 [Compound 51, N-[4-cyano-3-(trifluoromethyl)phenyl]-1-methyl-4-[(3-methyloxetan-3-yl)-sulfamoyl]-1H-pyrrole-2-carboxamide]
- EC50 ([1]; read-out: HepG2 2.15 EC50 (μM)): > 1 µM
- EC50 ([2]; read-out: HepG2 117 EC50 (μM)): > 1 µM
- CC50 at 4 days [3]: > 25 µM

SMILES: C[C@H](NS(=O)(=O)c1cc(C(=O)Nc2cccc(C#N)c2)n(C)c1)C(F)(F)F [Compound 197, N-(3-Cyanophenyl)-1-methyl-4-{[(1S)-2,2,2-trifluoro-1-methylethyl]-sulfamoyl}-1H-pyrrole-2-carboxamide]
- EC50 [1, 4]: 0.12 µM
- EC50 [2, 5]: 0.09 µM
- CC50 at 4 days [3, 6]: > 25 µM

SMILES: Cn1cc(S(=O)(=O)NC2(C)COC2)cc1C(=O)Nc1ccc(F)c(C#N)c1 [Compound 50, N-(3-cyano-4-fluorophenyl)-1-methyl-4-[(3-methyloxetan-3-yl)sulfamoyl]-1H-pyrrole-2-carboxamide]
- EC50 [1, 4]: 0.07 µM
- EC50 [2, 5]: 0.05 µM
- CC50 at 4 days [3, 6]: > 25 µM

SMILES: Cc1cc(NC(=O)c2cc(S(=O)(=O)N[C@@H](C)C(F)(F)F)cn2C)cc(F)c1F [Compound 104, N-(3,4-Difluoro-5-methylphenyl)-1-methyl-4-{[(1S)-2,2,2-trifluoro-1-methylethyl]sulfamoyl}-1H-pyrrole-2-carboxamide]
- EC50 [1, 4]: 0.02 µM
- EC50 [2, 5]: 0.02 µM
- CC50 at 4 days [3, 6]: > 25 µM

SMILES: Cn1cc(S(=O)(=O)NC2(C(F)(F)F)CCOCC2)cc1C(=O)Nc1ccc(F)c(C#N)c1 [Compound 247, N-(3-cyano-4-fluoro-phenyl)-1-methyl-4-{[4-(trifluoromethyl)tetrahydropyran-4-yl]sulfamoyl}-1H-pyrrole-2-carboxamide]
- EC50 [1, 4]: 0.03 µM
- EC50 [2, 5]: 0.03 µM
- CC50 at 4 days [3, 6]: > 25 µM

SMILES: Cc1c(S(=O)(=O)NC2(C)COC2)cn(C)c1C(=O)Nc1ccc(F)c(C(F)(F)F)c1 [Compound 179, N-[4-Fluoro-3-(trifluoromethyl)phenyl]-1,3-dimethyl-4-[(3-methyloxetan-3-yl)sulfamoyl]-1H-pyrrole-2-carboxamide]
- EC50 [1, 4]: 0.3 µM
- EC50 [2, 5]: 0.27 µM
- CC50 at 4 days [3, 6]: > 25 µM

SMILES: C[C@@H](NS(=O)(=O)c1cc(C(=O)Nc2cccc(C(F)(F)F)c2)n(C)c1)C(F)(F)F [Compound 122, 1-methyl-4-[[(1R)-2,2,2-trifluoro-1-methyl-ethyl]sulfamoyl]-N-[3-(trifluoromethyl)phenyl]pyrrole-2-carboxamide]
- EC50 [1, 4]: 0.07 µM
- EC50 [2, 5]: > 1 µM
- CC50 at 4 days [3, 6]: 13.1 µM

SMILES: C[C@H](NS(=O)(=O)c1cc(C(=O)Nc2ccc(F)c(Cl)c2F)n(C)c1)C(F)(F)F [Compound 156, N-(3-Chloro-2,4-difluorophenyl)-1-methyl-4-{[(1S)-2,2,2-trifluoro-1-methylethyl]sulfamoyl}-1H-pyrrole-2-carboxamide]
- EC50 [1, 4]: 0.04 µM
- EC50 [2, 5]: 0.03 µM
- CC50 at 4 days [3, 6]: > 25 µM

SMILES: Cn1cc(S(=O)(=O)NC23CC(C2)C3)cc1C(=O)Nc1cc(F)c(F)c(Cl)c1 [Compound 167, 4-(Bicyclo[1.1.1]pent-1-ylsulfamoyl)-N-(3-chloro-4,5-difluorophenyl)-1-methyl-1H-pyrrole-2-carboxamide]
- EC50 [1, 4]: 0.12 µM
- EC50 [2, 5]: 0.31 µM
- CC50 at 4 days [3, 6]: > 25 µM

SMILES: Cn1cc(S(=O)(=O)NC2(C(F)(F)F)CC2)cc1C(=O)Nc1ccc(F)c(C#N)c1 [Compound 227, N-(3-Cyano-4-fluorophenyl)-1-methyl-4-{[1-(trifluoromethyl)cyclopropyl]sulfamoyl}-1H-pyrrole-2-carboxamide]
- EC50 [1, 4]: 0.02 µM
- EC50 [2, 5]: 0.04 µM
- CC50 at 4 days [3, 6]: > 25 µM

SMILES: Cc1cccc(F)c1NC(=O)c1c(Cl)c(S(=O)(=O)N[C@H](C)C(F)(F)F)cn1C [Compound 275, 3-chloro-N-(2-fluoro-6-methyl-phenyl)-1-methyl-4-[[(1R)-2,2,2-trifluoro-1-methyl-ethyl]sulfamoyl]pyrrole-2-carboxamide]
- EC50 [1, 4]: 0.6 µM
- EC50 [2, 5]: 0.7 µM
- CC50 at 4 days [3, 6]: > 25 µM

SMILES: Cn1cc(S(=O)(=O)NC2(C(F)(F)F)CCC2)cc1C(=O)Nc1cc(F)c(F)c(Cl)c1 [Compound 189, N-(3-Chloro-4,5-difluorophenyl)-1-methyl-4-{[1-(trifluoromethyl)-cyclobutyl]sulfamoyl}-1H-pyrrole-2-carboxamide]
- EC50 [1, 4]: 0.007 µM
- EC50 [2, 5]: 0.007 µM
- CC50 at 4 days [3, 6]: 11.3 µM

SMILES: C[C@@H](NS(=O)(=O)c1cc(C(=O)Nc2cccc(C#N)c2)n(C)c1)C(F)(F)F [Compound 158, N-(3-Cyanophenyl)-1-methyl-4-{[(1R)-2,2,2-trifluoro-1-methylethyl]-sulfamoyl}-1H-pyrrole-2-carboxamide]
- EC50 [1, 4]: 0.12 µM
- EC50 [2, 5]: 0.36 µM
- CC50 at 4 days [3, 6]: > 25 µM

SMILES: Cc1cc(NC(=O)c2cc(S(=O)(=O)NC3(C)COC3)cn2C)cc(C(F)(F)F)c1F [Compound 79, N-[4-Fluoro-3-methyl-5-(trifluoromethyl)phenyl]-1-methyl-4-[(3-methyloxetan-3-yl)sulfamoyl]-1H-pyrrole-2-carboxamide]
- EC50 [1, 4]: 0.53 µM
- EC50 [2, 5]: 0.46 µM
- CC50 at 4 days [3, 6]: > 25 µM

SMILES: CC(C)NS(=O)(=O)c1cc(C(=O)Nc2ccc(F)c(Cl)c2)n(C)c1 [Compound 174, N-(3-Chloro-4-fluorophenyl)-1-methyl-4-[(1-methylethyl)sulfamoyl]-1H-pyrrole-2-carboxamide]
- EC50 [1, 4]: 0.08 µM
- EC50 [2, 5]: 0.04 µM
- CC50 at 4 days [3, 6]: > 25 µM

SMILES: Cc1c(F)ccc(NC(=O)c2cc(S(=O)(=O)NC(C)(C)C)cn2C)c1F [Compound 112, 4-(tert-butylsulfamoyl)-N-(2,4-difluoro-3-methyl-phenyl)-1-methyl-pyrrole-2-carboxamide]
- EC50 [1, 4]: 0.06 µM
- EC50 [2, 5]: 0.09 µM
- CC50 at 4 days [3, 6]: > 25 µM

SMILES: C[C@H](NS(=O)(=O)c1cc(C(=O)Nc2ccc(F)c(C#N)c2)n(C)c1)C(F)(F)F [Compound 102, N-(3-Cyano-4-fluorophenyl)-1-methyl-4-{[(1S)-2,2,2-trifluoro-1-methylethyl]sulfamoyl}-1H-pyrrole-2-carboxamide]
- EC50 [1, 4]: 0.06 µM
- EC50 [2, 5]: 0.06 µM
- CC50 at 4 days [3, 6]: > 25 µM

SMILES: CC(CC(F)(F)F)NS(=O)(=O)c1cc(C(=O)Nc2cc(F)c(F)c(Cl)c2)n(C)c1 (racemic) [Compound 169, N-(3-Chloro-4,5-difluorophenyl)-1-methyl-4-[(3,3,3-trifluoro-1-methylpropyl)sulfamoyl]-1H-pyrrole-2-carboxamide]
- EC50 [1, 4]: 0.12 µM
- EC50 [2, 5]: 0.07 µM
- CC50 at 4 days [3, 6]: 11.2 µM

SMILES: Cc1c(S(=O)(=O)NC2(C)COC2)cn(C)c1C(=O)Nc1ccc(F)c(Cl)c1F [Compound 243, N-(3-Chloro-2,4-difluorophenyl)-1,3-dimethyl-4-[(3-methyloxetan-3-yl)sulfamoyl]-1H-pyrrole-2-carboxamide]
- EC50 [1, 4]: 0.11 µM
- EC50 [2, 5]: 0.1 µM
- CC50 at 4 days [3, 6]: > 25 µM
